ChEMBL document CHEMBL1201862, “PubChem BioAssay data set” (2004)
Activity calls are given as the source filed them.

Key:
[1] = molecular target: Epstein-Barr nuclear antigen 1 (Epstein-Barr virus (strain B95-8) (HHV-4) (Human herpesvirus 4), UniProt P03211); test: EBNA-1 inhibitors, dose response, biochemical, fluorescence polarization, 1536-well (AID 2381); parameters: species or system human gammaherpesvirus 4;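 also: fluorescence polarization of a Cy5 DNA probe bound by EBNA-1 protein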
[2] = molecular target: Lytic switch protein BZLF1 (Epstein-Barr virus (strain B95-8) (HHV-4) (Human herpesvirus 4), UniProt P03206); test: EBV ZTA inhibitors, dose response, counter-screen for EBNA-1 inhibitor project, biochemical, fluorescence polarization, Epstein-Barr virus, 1536-well (AID 2377); parameters: species or system human gammaherpesvirus 4;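 also: fluorescence polarization of Cy5-labelled ZRE DNA probe bound by purified Zta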
[3] = enhancers of respiration in Yfh1-depleted yeast, dose response, Friedreich's ataxia, plus single-dose screen (AID 1465); format: functional;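 also: yeast depleted of Yfh1p frataxin homolog grown on glycerol needing respiration; WST-1 tetrazolium dye reduction as measure of cellular dehydrogenase metabolic activity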
[4] = molecular target: FAD-linked sulfhydryl oxidase ALR (Homo sapiens, UniProt P55789); test: inhibitors of human ALR sulfhydryl oxidase, dose response, biochemical, H2O2 detection, luminescence, cherry-pick (AID 493248)
[5] = molecular target: T1, Corticotropin-releasing factor receptor 2/Corticotropin-releasing factor-binding protein (Homo sapiens, UniProt P24387+Q13324); test: activators of CRF receptor 2 with binding protein – uHTS hits, confirmation (AID 602473); format: functional; settings: read-out: EC50_Mean
T1 sequence (Q13324 whole entry): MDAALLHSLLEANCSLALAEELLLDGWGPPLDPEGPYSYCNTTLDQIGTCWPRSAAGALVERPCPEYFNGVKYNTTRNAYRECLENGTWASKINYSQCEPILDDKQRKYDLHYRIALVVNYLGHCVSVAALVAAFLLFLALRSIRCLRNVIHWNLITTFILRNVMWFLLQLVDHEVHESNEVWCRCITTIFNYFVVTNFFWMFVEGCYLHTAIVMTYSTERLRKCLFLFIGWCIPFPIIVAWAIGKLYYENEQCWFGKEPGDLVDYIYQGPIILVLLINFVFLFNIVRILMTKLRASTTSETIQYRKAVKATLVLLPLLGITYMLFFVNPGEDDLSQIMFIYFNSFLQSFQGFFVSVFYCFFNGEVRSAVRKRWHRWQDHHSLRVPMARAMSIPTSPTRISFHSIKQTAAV
T1 sequence (P24387 whole entry): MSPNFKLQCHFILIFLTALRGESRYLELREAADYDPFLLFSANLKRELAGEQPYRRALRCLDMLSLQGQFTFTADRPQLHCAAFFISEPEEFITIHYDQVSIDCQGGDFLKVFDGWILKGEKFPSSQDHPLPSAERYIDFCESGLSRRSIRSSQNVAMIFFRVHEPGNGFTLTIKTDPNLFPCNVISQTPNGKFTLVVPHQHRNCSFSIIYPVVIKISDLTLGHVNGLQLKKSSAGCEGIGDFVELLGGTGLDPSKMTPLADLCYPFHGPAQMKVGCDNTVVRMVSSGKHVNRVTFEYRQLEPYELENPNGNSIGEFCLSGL

[6] = molecular target: Long-chain-fatty-acid--AMP ligase FadD28 (Mycobacterium tuberculosis, UniProt P9WQ59); test: Fluorescence polarization aasay to screen for inhibitors that compete for the binding of FadD28 to a bisubstrate Measured in Biochemical System Using Plate Reader - 2147-01_Inhibitor_Dose_CherryPick_Activity.; format: functional, Mycobacterium tuberculosis H37Rv
[7] = molecular target: Peroxisome proliferator-activated receptor gamma/Nuclear receptor coactivator 2 (Homo sapiens, UniProt P37231); format: functional;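 also: agonist potency for raising coactivator recruitment to the receptor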
[8] = molecular target: Peroxisome proliferator-activated receptor gamma/Nuclear receptor coactivator 3 (Homo sapiens, UniProt P37231); format: functional;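 also: agonist potency for raising coactivator recruitment to the receptor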
[9] = molecular target: Peroxisome proliferator-activated receptor gamma/Nuclear receptor coactivator 1 (Homo sapiens, UniProt P37231); format: functional;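 also: agonist potency as compounds enhance coactivator SRC-1 recruitment to PPARgamma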
HeLa = test: Cytotoxicity counterscreen assay for transcriptional activators of heat shock protein 70 (Hsp70). [Related pubchem assays: 1203, 1252 ]; format: functional; settings: Homo sapiens;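 also: cells exposed to compound for 16 hours before readout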
Nonstructural protein 1 = Nonstructural protein 1 (Influenza A virus, UniProt Q194T2); format: functional, Influenza A virus (A/California/07/2009(H1N1))
[10] = Luminescence Cell-Based Dose Retest to Confirm Inhibitors of Cancer Stem Cells. [Related pubchem assays (depositor defined):AID2717, AID2721]; format: functional; settings: Homo sapiens
Cytochrome P450 2C19 = Cytochrome P450 2C19 (Homo sapiens, UniProt P33261); test: Cytochrome panel assay with activity outcomes. Panel member name: p450-cyp2c19 Compounds with AC50 equal or less than 10 uM are considered active; format: functional; settings: read-out: AC50
[11] = molecular target: T2, Mannose-6-phosphate isomerase (Homo sapiens, UniProt P34949); test: inhibitors of human PMI, primary screen, biochemical, fluorescence intensity, coupled assay (AID 1209)
T2 sequence (P34949 whole entry): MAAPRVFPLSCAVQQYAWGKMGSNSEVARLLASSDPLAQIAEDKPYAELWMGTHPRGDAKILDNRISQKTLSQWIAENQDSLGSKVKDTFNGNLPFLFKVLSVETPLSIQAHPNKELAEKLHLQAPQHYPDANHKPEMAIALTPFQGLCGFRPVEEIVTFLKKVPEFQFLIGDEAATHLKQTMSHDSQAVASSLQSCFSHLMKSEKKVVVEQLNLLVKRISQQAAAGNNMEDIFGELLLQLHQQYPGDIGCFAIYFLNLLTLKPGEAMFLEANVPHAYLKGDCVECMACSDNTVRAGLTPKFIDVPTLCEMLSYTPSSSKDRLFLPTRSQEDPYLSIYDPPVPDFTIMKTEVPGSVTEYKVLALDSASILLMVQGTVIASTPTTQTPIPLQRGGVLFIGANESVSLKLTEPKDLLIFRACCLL

Leucine aminopeptidase = molecular target: T3, Leucine aminopeptidase (Plasmodium falciparum 3D7, UniProt Q8IL11); test: P. falciparum M17LAP inhibitors, primary screen, biochemical, fluorogenic H-Leu-NHMec substrate, 1536-well (AID 1619); format: functional
T3 sequence (Q8IL11 whole entry): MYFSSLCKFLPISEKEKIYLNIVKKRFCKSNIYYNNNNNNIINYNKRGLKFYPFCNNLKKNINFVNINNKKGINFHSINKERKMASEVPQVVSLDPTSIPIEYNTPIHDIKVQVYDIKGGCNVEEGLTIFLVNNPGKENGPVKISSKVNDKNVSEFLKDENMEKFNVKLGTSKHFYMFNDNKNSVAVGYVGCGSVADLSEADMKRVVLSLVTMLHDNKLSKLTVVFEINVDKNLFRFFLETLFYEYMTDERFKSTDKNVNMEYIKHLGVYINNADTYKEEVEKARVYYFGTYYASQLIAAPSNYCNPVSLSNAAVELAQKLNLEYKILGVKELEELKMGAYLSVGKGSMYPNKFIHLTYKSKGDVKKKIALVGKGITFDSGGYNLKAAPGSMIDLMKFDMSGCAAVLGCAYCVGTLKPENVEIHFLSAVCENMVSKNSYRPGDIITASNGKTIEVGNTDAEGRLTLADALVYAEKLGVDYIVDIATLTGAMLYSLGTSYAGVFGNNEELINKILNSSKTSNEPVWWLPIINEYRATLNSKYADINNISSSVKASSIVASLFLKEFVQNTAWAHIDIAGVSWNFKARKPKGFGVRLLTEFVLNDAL

Cytochrome P450 3A4 = Cytochrome P450 3A4 (Homo sapiens, UniProt P08684);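 also: CYP3A4 tested as one member of a cytochrome P450 panel screen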
Cytochrome P450 1A2 = molecular target: T4, Cytochrome P450 1A2 (Homo sapiens, UniProt P05177);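 also: PubChem cytochrome P450 panel assay, CYP1A2 panel member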
T4 sequence (P05177 whole entry): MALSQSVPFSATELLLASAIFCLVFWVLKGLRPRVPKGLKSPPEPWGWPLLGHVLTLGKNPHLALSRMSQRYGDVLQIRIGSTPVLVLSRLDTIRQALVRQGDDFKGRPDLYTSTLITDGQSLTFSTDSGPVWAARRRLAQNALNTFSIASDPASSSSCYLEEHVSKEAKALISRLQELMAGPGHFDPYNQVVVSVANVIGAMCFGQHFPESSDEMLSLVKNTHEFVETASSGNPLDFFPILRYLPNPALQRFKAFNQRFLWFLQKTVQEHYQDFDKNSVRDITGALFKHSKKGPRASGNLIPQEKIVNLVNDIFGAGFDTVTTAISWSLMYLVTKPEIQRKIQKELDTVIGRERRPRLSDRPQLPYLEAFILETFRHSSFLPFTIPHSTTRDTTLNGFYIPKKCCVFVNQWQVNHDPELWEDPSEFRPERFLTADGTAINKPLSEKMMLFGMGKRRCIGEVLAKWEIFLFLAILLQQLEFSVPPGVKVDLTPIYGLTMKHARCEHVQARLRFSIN

Long-chain-fatty-acid--AMP ligase FadD28, sequence (P9WQ59 whole entry): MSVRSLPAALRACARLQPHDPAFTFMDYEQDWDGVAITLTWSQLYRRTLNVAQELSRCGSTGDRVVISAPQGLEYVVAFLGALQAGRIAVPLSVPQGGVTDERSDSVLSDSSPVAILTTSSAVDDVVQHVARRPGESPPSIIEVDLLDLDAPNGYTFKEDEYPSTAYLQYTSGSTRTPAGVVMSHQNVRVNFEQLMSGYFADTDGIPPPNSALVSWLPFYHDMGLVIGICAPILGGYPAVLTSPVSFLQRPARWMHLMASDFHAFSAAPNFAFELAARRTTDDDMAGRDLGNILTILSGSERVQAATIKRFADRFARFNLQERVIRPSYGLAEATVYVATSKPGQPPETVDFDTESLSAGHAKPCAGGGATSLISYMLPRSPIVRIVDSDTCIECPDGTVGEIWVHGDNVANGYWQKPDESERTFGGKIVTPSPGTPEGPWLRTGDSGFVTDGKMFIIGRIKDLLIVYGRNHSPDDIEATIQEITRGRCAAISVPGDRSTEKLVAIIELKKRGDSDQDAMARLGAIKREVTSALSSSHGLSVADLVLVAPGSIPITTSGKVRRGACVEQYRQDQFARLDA
Peroxisome proliferator-activated receptor gamma/Nuclear receptor coactivator 2, sequence (P37231 whole entry): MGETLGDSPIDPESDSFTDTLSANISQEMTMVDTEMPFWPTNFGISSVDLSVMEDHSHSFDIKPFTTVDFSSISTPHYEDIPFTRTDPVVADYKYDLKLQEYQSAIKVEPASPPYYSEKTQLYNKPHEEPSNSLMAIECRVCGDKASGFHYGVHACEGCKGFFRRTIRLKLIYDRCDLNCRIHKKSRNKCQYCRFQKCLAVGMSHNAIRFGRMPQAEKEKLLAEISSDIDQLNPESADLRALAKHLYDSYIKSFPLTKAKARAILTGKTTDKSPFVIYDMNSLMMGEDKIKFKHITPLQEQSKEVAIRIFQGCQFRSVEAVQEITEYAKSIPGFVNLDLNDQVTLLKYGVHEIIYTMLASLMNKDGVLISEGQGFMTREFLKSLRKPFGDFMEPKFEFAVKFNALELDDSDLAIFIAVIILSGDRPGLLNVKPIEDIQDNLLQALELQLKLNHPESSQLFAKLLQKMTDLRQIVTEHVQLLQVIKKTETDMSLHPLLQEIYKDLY
Peroxisome proliferator-activated receptor gamma/Nuclear receptor coactivator 2, sequence (Q15596 whole entry, further chain): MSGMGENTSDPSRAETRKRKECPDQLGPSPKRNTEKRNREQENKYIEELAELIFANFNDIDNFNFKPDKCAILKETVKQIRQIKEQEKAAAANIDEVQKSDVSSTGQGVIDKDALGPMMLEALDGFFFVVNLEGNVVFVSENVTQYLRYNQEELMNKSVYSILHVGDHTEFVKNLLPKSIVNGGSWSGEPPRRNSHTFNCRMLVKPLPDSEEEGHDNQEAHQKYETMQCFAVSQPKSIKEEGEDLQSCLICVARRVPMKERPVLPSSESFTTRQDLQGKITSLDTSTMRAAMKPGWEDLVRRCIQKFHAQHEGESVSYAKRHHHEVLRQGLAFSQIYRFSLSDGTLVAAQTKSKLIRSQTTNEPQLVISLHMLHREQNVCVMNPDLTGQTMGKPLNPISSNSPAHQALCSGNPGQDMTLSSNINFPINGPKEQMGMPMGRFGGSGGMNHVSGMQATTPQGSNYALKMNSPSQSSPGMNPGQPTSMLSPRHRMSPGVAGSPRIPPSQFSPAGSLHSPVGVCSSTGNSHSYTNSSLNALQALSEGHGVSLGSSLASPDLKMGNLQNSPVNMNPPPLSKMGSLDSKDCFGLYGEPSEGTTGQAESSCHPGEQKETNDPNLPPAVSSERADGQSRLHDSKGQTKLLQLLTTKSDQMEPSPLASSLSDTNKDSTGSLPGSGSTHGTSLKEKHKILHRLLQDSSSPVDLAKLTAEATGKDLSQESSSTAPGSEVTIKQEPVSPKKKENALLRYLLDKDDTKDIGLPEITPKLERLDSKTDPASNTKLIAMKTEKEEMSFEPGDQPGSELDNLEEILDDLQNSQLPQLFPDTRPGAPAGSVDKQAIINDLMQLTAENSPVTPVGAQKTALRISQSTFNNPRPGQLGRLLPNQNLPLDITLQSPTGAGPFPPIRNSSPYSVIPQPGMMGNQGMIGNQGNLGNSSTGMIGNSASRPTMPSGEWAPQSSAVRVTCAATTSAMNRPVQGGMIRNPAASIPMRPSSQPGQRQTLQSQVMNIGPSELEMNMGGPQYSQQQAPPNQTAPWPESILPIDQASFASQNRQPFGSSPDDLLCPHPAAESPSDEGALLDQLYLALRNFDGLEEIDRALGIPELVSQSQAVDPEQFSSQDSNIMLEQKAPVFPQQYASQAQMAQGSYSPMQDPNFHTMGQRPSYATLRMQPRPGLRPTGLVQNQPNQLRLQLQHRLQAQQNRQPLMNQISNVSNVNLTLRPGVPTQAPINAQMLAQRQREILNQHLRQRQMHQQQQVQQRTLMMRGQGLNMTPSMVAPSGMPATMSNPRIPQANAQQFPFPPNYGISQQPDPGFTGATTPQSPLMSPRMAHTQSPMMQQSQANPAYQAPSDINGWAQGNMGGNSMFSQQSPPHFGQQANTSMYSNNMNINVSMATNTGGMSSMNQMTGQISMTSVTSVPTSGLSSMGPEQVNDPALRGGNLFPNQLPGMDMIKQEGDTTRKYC
Peroxisome proliferator-activated receptor gamma/Nuclear receptor coactivator 1, sequence (P37231 whole entry): as the sequence (P37231 whole entry) above
Peroxisome proliferator-activated receptor gamma/Nuclear receptor coactivator 1, sequence (Q15788 whole entry, further chain): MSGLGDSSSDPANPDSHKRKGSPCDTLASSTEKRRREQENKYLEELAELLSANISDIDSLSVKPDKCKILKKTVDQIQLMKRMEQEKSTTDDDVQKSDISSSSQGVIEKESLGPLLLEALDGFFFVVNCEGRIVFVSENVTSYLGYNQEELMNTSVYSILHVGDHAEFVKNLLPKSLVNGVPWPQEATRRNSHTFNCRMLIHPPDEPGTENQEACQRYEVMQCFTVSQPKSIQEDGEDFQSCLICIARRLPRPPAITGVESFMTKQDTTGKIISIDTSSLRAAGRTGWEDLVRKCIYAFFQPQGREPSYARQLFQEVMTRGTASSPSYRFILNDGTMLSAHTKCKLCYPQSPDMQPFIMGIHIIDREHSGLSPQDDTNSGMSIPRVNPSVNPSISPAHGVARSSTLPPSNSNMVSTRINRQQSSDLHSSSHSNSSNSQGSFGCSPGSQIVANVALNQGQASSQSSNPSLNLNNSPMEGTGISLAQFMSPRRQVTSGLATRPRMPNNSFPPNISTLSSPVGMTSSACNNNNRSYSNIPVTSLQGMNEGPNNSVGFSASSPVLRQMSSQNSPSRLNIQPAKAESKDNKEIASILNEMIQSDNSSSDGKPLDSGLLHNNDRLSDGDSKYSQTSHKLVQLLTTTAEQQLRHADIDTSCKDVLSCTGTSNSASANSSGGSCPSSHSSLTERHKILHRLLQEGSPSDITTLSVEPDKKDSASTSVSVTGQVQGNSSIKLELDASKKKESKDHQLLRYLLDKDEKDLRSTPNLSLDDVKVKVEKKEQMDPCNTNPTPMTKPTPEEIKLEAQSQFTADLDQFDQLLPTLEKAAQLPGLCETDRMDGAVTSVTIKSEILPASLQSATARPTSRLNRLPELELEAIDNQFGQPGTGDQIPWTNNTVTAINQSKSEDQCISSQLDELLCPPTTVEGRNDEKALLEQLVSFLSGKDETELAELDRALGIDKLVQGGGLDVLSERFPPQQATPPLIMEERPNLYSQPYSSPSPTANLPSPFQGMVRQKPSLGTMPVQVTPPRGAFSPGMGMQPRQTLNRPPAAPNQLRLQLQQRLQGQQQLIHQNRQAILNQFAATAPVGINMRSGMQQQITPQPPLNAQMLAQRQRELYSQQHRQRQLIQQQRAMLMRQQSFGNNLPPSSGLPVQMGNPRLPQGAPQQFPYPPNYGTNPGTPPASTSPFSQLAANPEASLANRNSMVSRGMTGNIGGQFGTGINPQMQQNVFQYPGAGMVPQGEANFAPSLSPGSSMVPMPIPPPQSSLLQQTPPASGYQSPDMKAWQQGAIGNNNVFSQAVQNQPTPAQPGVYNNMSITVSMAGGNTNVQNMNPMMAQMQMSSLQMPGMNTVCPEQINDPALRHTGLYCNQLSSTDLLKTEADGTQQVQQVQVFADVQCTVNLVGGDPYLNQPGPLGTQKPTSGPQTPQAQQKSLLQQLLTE
Lytic switch protein BZLF1, sequence (P03206 whole entry): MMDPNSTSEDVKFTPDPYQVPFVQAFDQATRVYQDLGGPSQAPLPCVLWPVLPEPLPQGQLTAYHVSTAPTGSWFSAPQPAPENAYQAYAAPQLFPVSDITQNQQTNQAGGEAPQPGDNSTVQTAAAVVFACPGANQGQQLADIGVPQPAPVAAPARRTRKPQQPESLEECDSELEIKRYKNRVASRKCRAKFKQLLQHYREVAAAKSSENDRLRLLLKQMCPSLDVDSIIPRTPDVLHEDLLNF
Nonstructural protein 1, sequence (Q194T2 whole entry): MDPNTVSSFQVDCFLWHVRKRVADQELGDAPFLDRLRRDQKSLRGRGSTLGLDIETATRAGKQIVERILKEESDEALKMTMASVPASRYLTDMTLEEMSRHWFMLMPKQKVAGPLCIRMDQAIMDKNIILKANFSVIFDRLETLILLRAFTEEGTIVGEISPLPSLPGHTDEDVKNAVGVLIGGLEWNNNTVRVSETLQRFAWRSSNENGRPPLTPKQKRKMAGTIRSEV

NS(=O)(=O)c1ccc(NC(=S)NC(=O)c2ccc3c(c2)OCO3)cc1
IC50 [1]: 19.5 µM (not active) | IC50 [2]: 33.3 µM (not active)

O=C(NN/C=C1\C(=O)N(c2ccc(Cl)cn2)C(=O)c2ccccc21)c1ccncc1
EC50 [3]: > 100 µM (active) | AC50 [4]: 5.43 µM (active) | EC50 [5]: 6.13 µM (active) | AC50 [6]: > 100 µM (inactive)

CC(C)(C)C1CCc2c(sc(NC(=O)c3cccs3)c2C(N)=O)C1 (stereo not drawn)
EC50 [7]: > 79.4 µM (not active) | EC50 [8]: > 79.4 µM (not active) | EC50 [9]: > 79.4 µM (not active)

CC1C/C(=C/c2ccccn2)C(=O)/C(=C/c2ccccn2)C1 (stereo not drawn)
CC50 (HeLa): > 1.22 µM (not active)

CC(=O)NC(c1ccccc1)c1cc([N+](=O)[O-])c2cccnc2c1O (stereo not drawn)
EC50 [3]: > 100 µM (active) | IC50 (Nonstructural protein 1): 5.52 µM (active) | AC50 [10]: 1.69 µM (active)

CCCCC(=O)NNC(=S)NC(=O)c1cccc([N+](=O)[O-])c1
AC50 (Cytochrome P450 2C19): 15.8 µM (inconclusive) | IC50 [11]: > 50 µM (not active) | IC50 (Leucine aminopeptidase): 49.1 µM (active) | AC50 (Cytochrome P450 3A4): inconclusive | AC50 (Cytochrome P450 1A2): 22.4 µM (inconclusive)
